Measured values from patent US20260167972A1, “AMINO ACID DERIVATIVES AS NOVEL DELIVERY AGENTS FOR FUNCTIONAL DELIVERY OF OLIGONUCLEOTIDES” (University of Rochester, priority 2022, published 2026).
“Also recorded” adds a separate entry of the source.

Key:
[1] = test system: thyroid transcription factor-1 (TTF-1) mRNA expression in A549 lung carcinoma cells; experiment: TTF-1 knockdown determination by RT-qPCR; format: cell-based, human; design: knockdown (reduction) of TTF-1 mRNA: concentration or dose not given beside the values; details: for Relative TTF-1 mRNA Expression (Normalized to GAPDH) / knockdown (reduction) of TTF-1 mRNA: A549 cells, TTF-1 siRNA; for Relative TTF-1 mRNA Expression (Normalized to GAPDH): 4 h dosing then 48 h incubation; for knockdown (reduction) of TTF-1 mRNA: normalized to GAPDH; for knockdown efficacy group: relative to Lipofectamine
Text: Finally, N-X-Phe derivatives achieved functional delivery of siRNA. To verify delivery of functional siRNA using N-X-Phe-DAP/siRNA particles, relative thyroid transcription factor-1 (TTF-1) mRNA expression normalized to GAPDH in A549 lung carcinoma cells was quantified against knockdown efficiencies with Lipofectamine as a control delivery agent (FIG. 6, Table 3). […] “Scrambled” is control siRNA delivered with Lipofectamine. TTF-1 is delivery of TTF-1 siRNA with Lipofectamine (n=5, *p≤0.05, **p≤0.01, ****p≤0.0001).
Sample Preparation for Cell-Based Experiments: For delivery analysis and functional knockdown, N-X-Phe-DAP derivatives (10 μL, 1 mM) or Lipofectamine 3000 (6 μL) was mixed with TTF-1 siRNA (Santa Cruz Biotechnology sc-36756, 6 μL, 10 μM) in Ultrapure™ DNase/RNase-Free Distilled Water (Invitrogen 10977015) to give a final volume of 100 μL. These mixtures were incubated for 30 minutes at room temperature, followed by dilution into 1×DMEM (Gibco 11965092, 1.9 mL). For cytotoxicity assays, N-X-Phe-DAP derivatives (10 μL, 1 mM) were diluted into 1×DMEM (Gibco 11965092, 1.9 mL).
TTF-1 Knockdown Determination: All knockdown experiments were performed in triplicate. A549 cells were seeded at a density of 1.05×10^5 cells/well in a 96-well plate (200 μL) and grown to 70-90% confluency. Cells were washed twice with 1×PBS (200 μL/well), N-X-Phe-DAP/siRNA samples were added (200 μL/well), and mixtures were incubated for 4 h at 37° C., 5% CO2. After 4 h, the media was removed, cells were washed with 1×PBS, wells were replenished with complete media containing 1×DMEM (Gibco 11965092), 10% fetal bovine serum (FBS, Invitrogen 26140087), and 1× antibiotic-antimycotic (Gibco 15240-062) and incubated an additional 48 h.
Cells were lysed and RNA was extracted using an Aurum Total RNA Mini Kit (Bio-Rad 7326820). In brief, cells were lysed with Lysis solution containing 1% β-mercaptoethanol (200 μL). Lysate was then mixed with 70% EtOH (200 μL) and processed using QIAshredder homogenizer columns (Qiagen 79656). Homogenate was then transferred to Aurum RNA binding columns, washed with Low Stringency Wash Solution, and incubated with diluted DNase I solution (80 μL) for 15 minutes at RT. Samples were then serially washed with High and Low Stringency Wash Solutions and RNA was eluded from the column with Ultrapure™ DNase/RNase-Free Distilled Water (Invitrogen 10977015, 80 μL). Recovered RNA was quantified on a Nanodrop One system and samples were diluted in Ultrapure™ DNase/RNase-Free Distilled Water (Invitrogen 10977015, 2 ng/μL). Relative TTF-1 knockdown was quantified by RT-qPCR
An iScript cDNA Synthesis Kit (Bio-Rad 1708891) was used for reverse transcription of extracted RNA samples. In brief, samples were prepared by combining 5× iScript Reaction Mix (4 μL), iScript Reverse Transcriptase (1 μL), extracted RNA (12.5 μL, 2 ng/μL), and Ultrapure™ DNase/RNase-Free Distilled Water (Invitrogen 10977015, 2.5 μL). Samples were incubated on a Bio-Rad Thermal Cycler using the following protocol: 5 min priming at 25° C., 20 min reverse transcription at 40° C., and 1 min reverse transcriptase inactivation at 95° C. Recovered cDNA was quantified on a Nanodrop One and samples were diluted in Ultrapure™ DNase/RNase-Free Distilled Water (Invitrogen 10977015, 50 ng/μL). Gene expression was quantified utilizing qPCR. A primer stock solution (750 nM, 267 μL, H2O) of TTF-1 (Santa Cruz Biotechnology, sc-36756-PR) or GAPDH (Santa Cruz Biotechnology, sc-35448-PR) primer pairs were prepared by dilution of Primer A (20 μL, 10 μM) and Primer B (20 μL, 10 μM) into Ultrapure™ DNase/RNase-Free Distilled Water (Invitrogen 10977015, 227 μL). Samples were prepared in triplicate by combining 2× iTaq Universal SYBR Green Super Mix (5 μL, Bio-Rad), TTF-1 or GAPDH primer stock (4 μL, 750 nM), and recovered cDNA (1 μL, 50 ng/μL) in sterile qPCR tubes. Quantitative Ct values were obtained by running samples on a Bio-Rad CFX96 Touch using the “PWRUP60” protocol. […]

[2] = Transmission electron microscopy of N-X-Phe-DAP/siRNA nanoparticles; format: physicochemical; details: for Diameter (nm), TEM: N-X-Phe-DAP/siRNA nanoparticles, 5 μM derivative, 30 nM siRNA, ± standard deviation; for morphology of siRNA nanoparticles/aggregates: TEM images, FIG. 4
Protocol: Each N-X-Phe-DAP derivative (100 μM) was mixed with siRNA (600 nM) in H2O for 30 minutes, followed by dilution of this mixture into DMEM cell culture media to final concentrations of 5 μM N-X-Phe-DAP derivative and 30 nM siRNA. Dynamic light scattering (DLS) and transmission electron microscopy (TEM) were utilized to analyze the physical characteristics of the resulting N-X-Phe-DAP/siRNA nanoparticles (Table 2, FIG. 4). […] Average diameter (nm), determined by dynamic light scattering (DLS) and TEM imaging, is reported as the average of […] with the error reported as the standard deviation of the mean. Binding affinity (Kd) of each agent to siRNA was determined by a slot blot filtration assay with values reported as the average of three measurements and error reported as the standard deviation of the mean. […] (B) Diameter (nm) determined by TEM (n=9, ***p≤0.001 ****p≤0.0001).
Transmission Electron Microscopy: N-X-Phe-DAP derivatives (100 μM) were complexed with siRNA (600 nM) in Ultrapure™ DNase/RNase-Free Distilled Water (Invitrogen 10977015) and allowed to incubate for 30 minutes at room temperature. These solutions were then diluted into water to give final concentrations of 5 μM Phe derivative and 30 nM siRNA. Samples (5 μL) were spotted on 200 mesh carbon coated copper grids and excess solvent was removed by capillary action with filter paper after 60 seconds. Grids were then stained with uranyl acetate (5 μL) for 60 seconds by excess solvent was removed by capillary action with filter paper. Grids were left to dry for 10 minutes. Images were taken using a Hitachi 7650 transmission electron microscope with an accelerating voltage of 80 kV.

| SMILES | Diameter (nm), TEM [2] [nm] | morphology of siRNA nanoparticles/aggregates [2] | Relative TTF-1 mRNA Expression (Normalized to GAPDH) [1] | knockdown (reduction) of TTF-1 mRNA [1] | knockdown efficacy group [1] |
| --- | --- | --- | --- | --- | --- |
| NCCCNC(=O)[C@H](Cc1ccccc1)NC(=O)Cc1ccc2ccccc2c1 [2-Nap-Phe-DAP] | 450 ± 27 | spherical micelle-like structures | 13.4 ± 1.4 | 87% | highly effective knockdown (dramatically improved relative to Lipofectamine) |
| NCCCNC(=O)[C@H](Cc1ccccc1)NC(=O)OCc1ccccc1 [Cbz-Phe-DAP] | 93 ± 9 | smaller spheres | 30.9 ± 3.0 | approximately 70% | effective knockdown (slightly improved or similar relative to Lipofectamine) |
| NCCCNC(=O)[C@H](Cc1ccccc1)NC(=O)CC1c2ccccc2-c2ccccc21 [Fm-Phe-DAP] | 163 ± 10 | spherical micelle-like structures | 37.9 ± 8.3 | ~62% | effective knockdown (slightly improved or similar relative to Lipofectamine) |
| NCCCNC(=O)[C@H](Cc1cccc(F)c1)NC(=O)OCC1c2ccccc2-c2ccccc21 [Fmoc-3F-Phe-DAP] | 170 ± 8 | mixtures of spherical particles and one-dimensional fibril-like structures | 51.8 ± 6.6 | ~48% |  |
| NCCCNC(=O)[C@H](Cc1c(F)c(F)c(F)c(F)c1F)NC(=O)OCC1c2ccccc2-c2ccccc21 [Fmoc-F5-Phe-DAP] | 140 ± 12 | mixtures of spherical particles and one-dimensional fibril-like structures | 38.6 ± 4.9 | ~61% | effective knockdown (slightly improved or similar relative to Lipofectamine) |
| NCCCNC(=O)[C@H](Cc1ccccc1)NC(=O)OCC1c2ccccc2-c2ccccc21 [Fmoc-Phe-DAP] | 136 ± 7 | spherical micelle-like structures | 17.4 ± 2.1 | 83% | highly effective knockdown (dramatically improved relative to Lipofectamine) |
| CCCCCCC(=O)N[C@@H](Cc1ccccc1)C(=O)NCCCN [Hex-Phe-DAP] | 81 ± 10 | mixtures of spherical particles and one-dimensional fibril-like structures; also recorded: primarily exhibiting fibril and sheet-like structures that aggregate into bundles |  |  | ineffective knockdown (less effective than Lipofectamine) |
| NCCCNC(=O)[C@H](Cc1ccccc1)NC(=O)CCCc1ccc2ccc3cccc4ccc1c2c34 [Pyr-Phe-DAP] | 50 ± 5.0 | mixtures of spherical particles and one-dimensional fibril-like structures; also recorded: dominated by fibril-like structures with some evidence of spherical nanoparticles | 33.0 ± 2.2 | approximately 70% | effective knockdown (slightly improved or similar relative to Lipofectamine) |

Continued, in another order:

| Diameter (nm), TEM [2] [nm] | morphology of siRNA nanoparticles/aggregates [2] | SMILES | Relative TTF-1 mRNA Expression (Normalized to GAPDH) [1] | knockdown (reduction) of TTF-1 mRNA [1] | knockdown efficacy group [1] |
| --- | --- | --- | --- | --- | --- |
| 211 ± 17 | spherical micelle-like structures | NCCCNC(=O)[C@H](Cc1ccccc1)NC(=O)Cc1cccc2ccccc12 [1-Nap-Phe-DAP] | 13.8 ± 3.7 | 86% | highly effective knockdown (dramatically improved relative to Lipofectamine) |
| 71 ± 2 | smaller spheres | NCCCNC(=O)[C@H](Cc1ccccc1)NC(=O)C1CCCCC1 [Cyc-Phe-DAP] |  |  | ineffective knockdown (less effective than Lipofectamine) |
